The values that follow come from ChEMBL document CHEMBL2311427, “Bioactive barrigenol type triterpenoids from the leaves of Xanthoceras sorbifolia Bunge” (Eur J Med Chem, 2013).

Bounds are passed on as bounds.

Assay type in all cases: functional, cell-based
For one test, the system named is HepG2. Nature of the test: Antitumor activity against human HepG2 cells assessed as growth inhibition measured after 48 hrs by MTT assay. Conditions: HepG2, 48 h. For orientation: Formazan colour is commonly taken as a measure of viable cells.
Another test concerns HeLa. Nature of the test: Antitumor activity against human HeLa cells assessed as growth inhibition measured after 48 hrs by MTT assay.
Another test concerns MCF7. Nature of the test: Antitumor activity against human MCF7 cells assessed as growth inhibition measured after 48 hrs by MTT assay. Conditions: MCF7, 48 h.

For `C[C@@H]1O[C@@H](O[C@H]2[C@H](OC[C@@]34CC[C@]5(C)C(=CC[C@@H]6[C@@]7(C)CC[C@H](O[C@@H]8O[C@H](CO[C@@H]9O[C@H](CO)[C@@H](O)[C@H](O)[C@H]9O)[C@@H](O)[C@H](O)[C@H]8O)C(C)(C)[C@@H]7CC[C@]65C)[C@@H]3CC(C)(C)[C@@H](O)[C@@H]4O)O[C@H](CO)[C@@H](O)[C@@H]2O)[C@H](O)[C@H](O)[C@H]1O`, the IC50 came out at 31.5 µM in the test on HepG2, 18.8 µM in the test with HeLa and 25.4 µM in the test on MCF7.
`C/C=C(/C)C(=O)O[C@@H]1[C@@H](O)[C@H](O[C@H]2CC[C@]3(C)[C@H]4CC=C5[C@@H]6CC(C)(C)[C@@H](O)[C@H](O)[C@]6(CO[C@@H]6O[C@H](CO[C@@H]7O[C@H](CO)[C@@H](O)[C@H](O)[C@H]7O)[C@@H](O)[C@H](O)[C@H]6O[C@@H]6O[C@@H](C)[C@H](O)[C@@H](O)[C@H]6O)CC[C@@]5(C)[C@]4(C)CC[C@H]3C2(C)C)O[C@H](CO[C@@H]2O[C@H](CO)[C@@H](O)[C@H](O)[C@H]2O)[C@H]1O`: the half-inhibitory concentration (IC50) in the test with HepG2, with HeLa and with MCF7 was above 100 µM throughout.
For `C/C=C(/C)C(=O)O[C@H]1[C@H](OC(=O)/C(C)=C\C)[C@]2(CO)[C@H](O)[C@H](O)[C@]3(C)C(=CC[C@@H]4[C@@]5(C)CC[C@H](O[C@@H]6O[C@H](C(=O)OC)[C@@H](O)[C@H](O)[C@H]6O[C@@H]6O[C@H](CO)[C@@H](O)[C@H](O)[C@H]6O)C(C)(C)[C@@H]5CC[C@]43C)[C@@H]2CC1(C)C`, the half-inhibitory concentration (IC50) was 43.7 µM in the test with HepG2, 81.6 µM with HeLa and above 100 µM with MCF7.
Take `C/C=C(/C)C(=O)O[C@H]1[C@H](OC(=O)/C(C)=C\C)[C@]2(CO)[C@H](O)[C@H](O)[C@]3(C)C(=CC[C@@H]4[C@@]5(C)CC[C@H](O[C@@H]6O[C@H](CO[C@@H]7O[C@H](CO)[C@@H](O)[C@H](O)[C@H]7O)[C@@H](O)[C@H](O)[C@H]6O[C@@H]6O[C@@H](CO)[C@H](O)[C@H]6O)C(C)(C)[C@@H]5CC[C@]43C)[C@@H]2CC1(C)C`: the half-maximal inhibitory concentration (IC50) came out at 9.21 µM in the test with HepG2, 7.56 µM in the test on HeLa and 9.62 µM in the test on MCF7.
For the compound `C/C=C(/C)C(=O)O[C@H]1[C@H](O[C@H]2CC[C@]3(C)[C@H]4CC=C5[C@@H]6CC(C)(C)[C@@H](O)[C@H](O)[C@]6(CO[C@@H]6O[C@H](CO[C@@H]7O[C@H](CO)[C@@H](O)[C@H](O)[C@H]7O)[C@@H](O)[C@H](O)[C@H]6O[C@@H]6O[C@@H](C)[C@H](O)[C@@H](O)[C@H]6O)CC[C@@]5(C)[C@]4(C)CC[C@H]3C2(C)C)O[C@H](CO[C@@H]2O[C@H](CO)[C@@H](O)[C@H](O)[C@H]2O)[C@@H](O)[C@@H]1O`, the IC50 in the test on HepG2, in the test on HeLa and with MCF7 was above 100 µM each time.
Regarding `COc1cc([C@@H]2c3cc4c(cc3[C@@H](O[C@@H]3O[C@@H]5CO[C@@H](C)O[C@H]5[C@H](O)[C@H]3O)[C@H]3COC(=O)[C@H]23)OCO4)cc(OC)c1O` [ETOPOSIDE], the figures for the 50% inhibitory concentration (IC50) in the test with HepG2, in the test on HeLa and in the test on MCF7 were 9.14 µM, 8.32 µM and 59.8 µM, respectively.
For the compound `O=c1[nH]cc(F)c(=O)[nH]1` [FLUOROURACIL], the IC50 with HepG2 is above 100 µM; in the test on HeLa, 14.8 µM; with MCF7 it was above 100 µM.
Consider `CC(=O)O[C@H]1C(=O)[C@@]2(C)[C@H]([C@H](OC(=O)c3ccccc3)[C@]3(O)C[C@H](OC(=O)[C@H](O)[C@@H](NC(=O)c4ccccc4)c4ccccc4)C(C)=C1C3(C)C)[C@]1(OC(C)=O)CO[C@@H]1C[C@@H]2O` [PACLITAXEL], for which the figures for the IC50 with HepG2 and in the test on MCF7 were 61.8 µM and 77.2 µM, respectively.
In the case of `Oc1ccc(/C=C/c2cc(O)cc(O)c2)cc1` [RESVERATROL], the IC50 with HepG2 was above 100 µM; in the test with HeLa, 58.9 µM; in the test on MCF7 it was above 100 µM.
Take `C[C@@H]1O[C@@H](O[C@H]2[C@H](OC[C@@]34CC[C@]5(C)C(=CC[C@@H]6[C@@]7(C)CC[C@H](O[C@@H]8O[C@H](CO[C@@H]9O[C@H](CO)[C@@H](O)[C@H](O)[C@H]9O)[C@@H](O)[C@H](O)[C@H]8O)C(C)(C)[C@@H]7CC[C@]65C)[C@@H]3CC(C)(C)[C@@H](O)[C@@H]4O)O[C@H](CO[C@@H]3O[C@H](CO)[C@@H](O)[C@H](O)[C@H]3O)[C@@H](O)[C@@H]2O)[C@H](O)[C@H](O)[C@H]1O` [XANIFOLIA O54]: the values for the half-maximal inhibitory concentration (IC50) with HepG2, with HeLa and with MCF7 were 7.25 µM, 3.98 µM and 7.29 µM, respectively.

Usually IC50 stands for the concentration that gives 50% inhibition.
